Drawing on patent publication US20040197268A1, “Method of imaging amyloid deposits using substituted rhodanine derivatives” (priority 1999, published 2004), this text covers IC50 and melting point for eleven molecules.

Data set [1] has as its target T1, Aβ(1-40) (Homo sapiens, UniProt P05067).
T1 construct: Soluble Aβ(1-40) peptide (Bachem, Torrance, Calif.); purchased Bachem, Torrance, Calif
Nature of the data set: BASST (Beta-Amyloid Self-Seeding, ThioflavinT), inhibitors of self-seeded amyloid fibril growth. It is filed as biochemical. The conditions noted are these: 30 μM soluble Aβ(1-40), pH 7.5, 37° C., 3 to 5 hours, thioflavin T fluorescence. A digest of the protocol:
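Self-seeded soluble Aβ(1-40) at 30 μM was mixed on ice with compound (3-fold dilutions, top 100 μM final; DMSO <1%) in pH 7.5 phosphate buffer with 1 M urea. After 10 min on ice, mixtures were incubated 3 to 5 hours at 37° C. Fibril growth was read as thioflavin T fluorescence (ex 440/em 485).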

Data set [2] addresses T1, Aβ(1-40). The data set is described as follows: BASSR (Beta-Amyloid Self-Seeding Radioassay), inhibitors of self-seeded amyloid fibril growth. Conditions: 30 μM soluble Aβ(1-40) + 125I-labeled Aβ(1-40), pH 7.5, 37° C., 3 to 5 hours, filtration. The class given is biochemical. A digest of the protocol: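 Self-seeding growth of fibrils from 30 μM soluble human Aβ(1-40) plus ^125I-labeled Aβ(1-40) was run in 50 mM sodium phosphate pH 7.5, 100 mM NaCl, 1 M urea, with compound as serial 3-fold dilutions from 100 μM final, DMSO <1%. After 10 min on ice and 3 to 5 hours at 37° C., fibrils were filter-collected and radioactivity counted.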

For data set [3], the target named is T2, beta amyloid peptide Aβ(1-40) (Homo sapiens, UniProt P05067).
T2 construct: 0.5 mg/mL AP (140) peptide in 20% HFIP+0.1 μL/assay radioiodinated ^125I Aβ(1-40)
T2 sequence (P05067 672-711 limits assumed): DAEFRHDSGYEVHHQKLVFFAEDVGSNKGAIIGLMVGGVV
The data set is described as follows: BAPA (Beta-Amyloid Peptide Aggregation), pH 6.0. The class given is biochemical. Conditions: Aβ(1-40) 33 μM, pH 6.0, 2 to 4 hours at room temperature, filtration. The procedure, abridged: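 HFIP-monomerised Aβ(1-40) with ^125I Aβ(1-40) tracer in 50 mM phosphate pH 6.0, DMSO <1%, incubated 2 to 4 h at room temperature. Aggregates collected by 0.2 μm filtration and counted by scintillation, background-corrected.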

Another data set addresses T3, Aβ(1-42) (Homo sapiens, UniProt P05067).
T3 construct: Required Aβ(1-42)(California Peptide) was dried from its hexafluoroisopropanol (HFIP) stock solution; purchased California Peptide
Nature of the data set: BATYM Assay (Aβ(1-42) aggregation, Thioflavin T fluorescence). It is filed as biochemical. The conditions noted are these: Aβ 1-42 final concentration 100 μM, PBS pH 7.4, 37° C., 1 day, ThT fluorescence. A digest of the protocol:
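HFIP-dried Aβ(1-42), redissolved in DMSO/PBS pH 7.4 and filtered, was incubated at 100 μM final with compound (2% DMSO) for 1 day at 37° C. Aggregation read by ThT (30 μM, glycine-NaOH pH 8.5) fluorescence, ex 440/em 485 nm; inhibition corrected for compound blank, IC50 by curve fit, two experiments in triplicate.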

“And” between values parts separate entries of the source, which are not always exact repeats. Identical values can stand only once.

T1 sequence (P05067 672-711 limits assumed): as above
T3 sequence (P05067 672-713 limits assumed): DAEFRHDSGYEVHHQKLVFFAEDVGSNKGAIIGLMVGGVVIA

Consider `CCCCCN(CCCCC)c1ccc(/C=C2\SC(=S)N(CC(=O)NS(=O)(=O)c3ccc(F)cc3)C2=O)cc1` [Example 27, (Z) N-{2-[5-(4-Dipentylamino-benzylidene)-4-oxo-2-thioxo-thiazolidin-3-yl]-acetyl}-4-fluoro-benzenesulfonamide], for which the melting point is 130 to 132 °C. The molecule further registered a half-inhibitory concentration (IC50) at Aβ(1-40) [1] of 2 µM. For the same molecule, at Aβ(1-40) [2], the half-inhibitory concentration (IC50) was 7 µM. Moreover, the 50% inhibitory concentration (IC50) in data set [3] was 93 µM. On Aβ(1-42), this molecule showed a half-maximal inhibitory concentration (IC50) of 2.02 µM.
In turn, `CCCCN(CCCC)c1ccc(/C=C2\SC(=S)N(CCS(=O)(=O)NC(=O)c3ccccc3)C2=O)cc1` [Example 28, (Z) 2-[5-(4-Dibutylamino-benzylidene)-4-oxo-2-thioxo-thiazolidin-3-yl]-ethanesulfonic acid benzoylamide] came in with a melting point of 183 °C. The IC50 at Aβ(1-40) [1] came out at 0.3 µM. Besides, the IC50 at Aβ(1-40) [2] turned out to be 21 µM. In addition, 69 µM corresponded to half-maximal inhibition in data set [3] (IC50). Besides, 2.19 µM corresponded to half-maximal inhibition at Aβ(1-42) (IC50).
`O=C(NS(=O)(=O)CCN1C(=O)/C(=C/c2ccc(N3CCC4CCCCC4C3)cc2)SC1=S)c1ccccc1` (stereo not shown) [Example 29, (Z) 2-{5-[4-(Octahydro-isoquinolin-2-yl)-benzylidene]-4-oxo-2-thioxo-thiazolidin-3-yl}-ethanesulfonic acid benzoylamide] gave a melting point of 213 °C. The same molecule registered an IC50 on Aβ(1-40) [1] of 0.6 µM. For the same molecule, the IC50 on Aβ(1-40) [2] worked out at 11 µM. This molecule also displayed a concentration for half-maximal inhibition (IC50) in data set [3] of more than 100 µM. In addition, 3.42 µM corresponded to half-maximal inhibition against Aβ(1-42) (IC50).
As to `O=C(NS(=O)(=O)CCN1C(=O)/C(=C/c2ccc(N3CCC4CCCCC4C3)cc2)SC1=S)c1ccc(F)cc1` (stereo not shown) [Example 30, (Z) 2-{5-[4(Octahydro-isoquinolin-2-yl)benzylidene]-4-oxo-2′-thioxo-thiazolidin-3-yl}-ethanesulfonic acid 4-fluoro-benzoylamide], the melting point was determined as 248 °C. Further, the IC50 against Aβ(1-40) [1] was 0.3 µM. For the same molecule, the IC50 on Aβ(1-40) [2] was more than 100 µM. Besides, the IC50 in data set [3] was more than 60 µM. The same molecule yielded a half-inhibitory concentration (IC50) at Aβ(1-42) of 2.26 µM.
Take `CCCCCN(CCCCC)c1ccc(/C=C2\SC(=S)N(CCS(=O)(=O)NC(=O)c3ccc(F)cc3)C2=O)cc1` [Example 31, (Z) 2-[5-(4-Dipentylamino-benzylidene)-4-oxo-2-thioxo-thiazolidin-3-yl]-ethanesulfonic acid 4-fluoro-benzoylamide]: the melting point was 195 to 196 °C. The molecule also yielded an IC50 on Aβ(1-40) [1] of 0.3 µM. Besides, the IC50 at Aβ(1-40) [2] is 9 µM. Moreover, the half-inhibitory concentration (IC50) in data set [3] was more than 100 µM. For the same molecule, the IC50 against Aβ(1-42) was determined as 3.11 µM.
For the molecule `CCCCN(CCCC)c1ccc(/C=C2\SC(=S)N(Cc3cc(=O)c(O)co3)C2=O)cc1` [Example 33, (Z) 5-(4-Dibutylamino-benzylidene)-3-(5-hydroxy-4-oxo-4H-pyran-2-ylmethyl)-2-thioxo-thiazolidin-4-one], the melting point lay within 226 to 227 °C. Moreover, the IC50 at Aβ(1-40) [1] amounted to 2 µM. Moreover, the half-inhibitory concentration (IC50) on Aβ(1-40) [2] is more than 100 µM. Moreover, in data set [3], the half-inhibitory concentration (IC50) was more than 60 µM. Besides, on Aβ(1-42), it took 3.03 µM to reach half-maximal inhibition (IC50).
`CCCC1CCN(c2ccc(/C=C3\SC(=S)N(Cc4cc(=O)c(O)co4)C3=O)cc2)CC1` [Example 34, (Z) 3-(5-Hydroxy-4-oxo-4H-pyran-2-ylmethyl)-5-[4-(4-propyl-piperidin-1-yl)-benzylidene]-2-thioxo-thiazolidin-4-one] registered a melting point of 253 °C. The same molecule yielded a concentration for half-maximal inhibition (IC50) against Aβ(1-40) [1] of 2 µM. The IC50 on Aβ(1-40) [2] was more than 100 µM. For the same molecule, the IC50 in data set [3] is more than 60 µM. Besides, half-maximal inhibition on Aβ(1-42) (IC50) required 2.38 µM.
Molecule `CCCC1CCN(c2ccc(/C=C3\SC(=S)N(CC(=O)NS(=O)(=O)c4ccccc4)C3=O)cc2)CC1` [Example 36, (Z) N-(2-{4-Oxo-5-[4-(4-propyl-piperidin-1-yl)-benzylidene]-2-thioxo-thiazolidin-3-yl}-acetyl)benzenesulfonamide] registered a melting point of 201 °C. The IC50 against Aβ(1-40) [1] came to 1 µM. In addition, the IC50 at Aβ(1-40) [2] was more than 100 µM. The same molecule yielded a concentration for half-maximal inhibition (IC50) in data set [3] of more than 60 µM. The molecule further yielded an IC50 against Aβ(1-42) of 3.3 µM.
The molecule `CCCC1CCN(c2ccc(/C=C3\SC(=S)N(CC(=O)NS(C)(=O)=O)C3=O)cc2)CC1` [Example 37, (Z) N-(2-{4-Oxo-5-[4-(4-propyl-piperidin-1-yl)-benzylidene]-2-thioxo-thiazolidin-3-yl}-acetyl)methanesulfonamide] registered a melting point of 254 °C. The concentration for half-maximal inhibition (IC50) at Aβ(1-40) [1] stood at 0.4 µM. In addition, on Aβ(1-40) [2], the 50% inhibitory concentration (IC50) was 50 µM. Moreover, the IC50 in data set [3] is more than 60 µM. This molecule gave an IC50 against Aβ(1-42) of 3.83 µM.
The molecule `O=C(CN1C(=O)/C(=C/c2ccc(N3CC[C@@H]4CCCC[C@H]4C3)cc2)SC1=S)NS(=O)(=O)c1ccc(F)cc1` [Example 38, (Z) 4-Fluoro-N-(2-{5-[(4aS,8aR)-4-(octahydro-isoquinolin-2-yl)-benzylidene]-4-oxo-2-thioxo-thiazolidin-3-yl}-acetyl)-benzenesulfonamide] returned a melting point of 220 to 221 °C. Also, on Aβ(1-40) [1], the half-maximal inhibitory concentration (IC50) is 0.7 µM and 0.1 µM. In addition, the half-inhibitory concentration (IC50) on Aβ(1-40) [2] is 10 µM and 5 µM. This molecule also gave an IC50 in data set [3] of 66 µM. Further, on Aβ(1-42), the midpoint of inhibition, the IC50, lay at 2.54 µM.
`CCCC1CCN(c2ccc(/C=C3\SC(=S)N(CC(=O)NS(=O)(=O)c4ccc(F)cc4)C3=O)cc2)CC1` [Example 39, (Z) 4-Fluoro-N-(2-{4-oxo-5-[4-(4-propyl-piperidin-1-yl)-benzylidene]-2-thioxo-thiazolidin-3-yl}-acetyl)-benzenesulfonamide] gave a melting point of 197 °C. Also, at Aβ(1-40) [1], the half-inhibitory concentration (IC50) is 1 µM and 0.1 µM. At Aβ(1-40) [2], the half-maximal inhibitory concentration (IC50) was > 100 µM and 21 µM. In data set [3], this molecule yielded a concentration for half-maximal inhibition (IC50) of 37 µM. On Aβ(1-42), this molecule displayed an IC50 of 2.86 µM.

The IC50 is the concentration that gives 50% inhibition. By melting point is commonly meant the temperature, or range, at which the solid turns liquid.
